From patent US10004222B2, “Small molecule ice recrystallization inhibitors and methods of use thereof” (THE UNIVERSITY OF OTTAWA, priority 2012, dated 2018)
“And” between values parts separate entries of the source, which are not always exact repeats. Equal values may be shown once.

Columns and labels:
[1] = test system: CD34+ cells (hematopoietic stem cells); assay: colony forming unit (CFU) assay after cryopreservation of umbilical cord blood; format: cell-based, human; settings: 27.5 mM IRI, 10% DMSO; post-thaw, 14 days in Methocult
[2] = test system: CD34+ cells (hematopoietic stem cells); assay: as above; format: cell-based, human; settings: for BFU-E / CFU-G / CFU-GEMM / CFU-GM / CFU-M / Total Number of Colonies: 10% DMSO, post-thaw, 14 days in Methocult; for combined results of the CFU assays vs control: UCB units 26, 27, 28 combined, FIG. 41
Experimental: Aliquots of LC (50,000 CD34^+ cells) are added to 2.0 mL cryovials. For each experiment, four cryovials are prepared (two for post-thaw viability analysis using flow cytometry and two for functionality analysis using the colony forming unit assay). Cryovials are kept on ice until placement in −80° C. freezer. Cryovials are centrifuged at 400 g and 10° C. for 5 minutes to pellet cells. After centrifugation, the time taken until placement in −80° C. freezer should not exceed 10 minutes. Supernatant is removed by aspiration or by decanting, but preferably by aspiration. Plasma (volume depends on desired cryosolution concentration) is added and cells are suspended by pipetting. Pre-made cryosolutions (see Cryosolutions) are added (volume depends on desired cryosolution concentration) and mixed by pipetting. Cryovials are placed in a Mr. Frosty® rate controlled freezing container which is then placed in a −80° C. freezer for 24 hours. By placing the cryovials in the freezing container, their contents undergo a cooling rate of about −1° C. per minute. After 24 hours, the cryovials are transferred to a liquid nitrogen dewar for storage until thawed for analysis.
Cryosolutions are prepared in distilled autoclaved water supplemented with 0.9% saline and 5% dextran for cryopreservation experiments and diluted with different volumes of plasma in cryovials depending on desired concentration of ice recrystallization inhibitor. N-(4-chlorophenyl)-D-gluconamide (4a) and N-(2-fluorophenyl)-D-gluconamide (2a) are prepared at 25 mM and N-(4-methoxyphenyl)-D-gluconamide (3a) and N-(2,6-difluorobenzyl)-D-gluconamide (1b) are prepared at 55 mM. 100, 50, 33 or 20 μL of 25 mM N-(4-chlorophenyl)-D-gluconamide (4a) or N-(2-fluorophenyl)-D-gluconamide (2a) are added to cryovials containing 50,000 CD34^+ cells suspended in 0, 50, 67, or 80 μL of plasma, respectively, for a final IRI concentration of 25, 12.5, 8 or 5 mM, respectively. 100, 50, 33 or 20 μL of 55 mM N-(4-methoxyphenyl)-D-gluconamide (3a) or N-(2,6-difluorobenzyl)-D-gluconamide (1b) are added to cryovials containing 50,000 CD34^+ cells suspended in 0, 50, 67, or 80 μL of plasma, respectively, for a final IRI concentration of […], 18 or 11 mM, respectively.
Cryovials are thawed in a 37° C. water bath and diluted with 900 μL of IMDM (10% FBS, 1% penicillin/streptomycin). Cryovials are placed on ice until washed. Samples are mixed by pipetting and 80 μL is transferred to a 15 mL Falcon tube. 5 mL of Iscove's Modified Dulbecco's Medium (IMDM) supplemented with 10% fetal bovine serum (FBS) is added and this mixture is centrifuged at 1100 rpm for six minutes to yield a cell pellet and a supernatant. The supernatant is removed by aspiration and the cell pellet is resuspended in 1 mL IMDM (2% FBS) to form a suspension. The suspension is mixed by pipetting. 150 μL of this cell suspension is added to 3 mL Methocult™ media and plating is performed in accordance with manufacturer's instruction. The suspension with Methocult™ media is mixed adequately by vortexing for 20 seconds. The contents are allowed to settle and bubbles are allowed to subside before plating (approximately 5-10 minutes). Using a 3 mL syringe and 16 gauge blunt needles, 2.5 mL of the cell suspension in Methocult™ is taken from the bottom. 1 mL of this 2.5 mL is added to two 5 mL cell culture dishes. The dishes are swirled to ensure cells in Methocult™ medium coat the entire bottom of the dish. A third 5 mL dish is prepared to contain distilled autoclaved water without a lid. These three 5 mL dishes are placed in a 100 mL plate; two 5 mL dishes contain 1 mL of cell suspension in Methocult™ medium with the lid on and one containing distilled autoclaved water with the lid off. The lid is placed on the 100 mL plate and stored in a 37° C. incubator (5% CO2) for two weeks.

Tf1-α cells = assay: cryopreservation of Tf1-α cells, viability/apoptosis by flow cytometry (7-AAD, Annexin V); format: cell-based; settings: 55 mM aryl-aldonamide, post-thaw
Experimental: Tf1-α cells were cultured to a final concentration of 2-3×10^6 cells/mL. Three million cells were transferred into cryovials and media were removed by aspiration after centrifugation at 1000 rpm for five minutes. 100 μL of RPMI media (10% FBS) supplemented with the cryopreservative of interest was added to the cryovial and vortexed. The cryovials were cooled at a rate of −1° C./min for 24 hours to −80° C. before being transferred to a liquid nitrogen dewar for storage until analysis.
Cryovials were thawed under fast thaw conditions (submerged in 37° C. water bath). The cells were then diluted to a concentration of 3×10^6 cells/mL with 1× Annexin V Binding Buffer and a cell count was obtained by hemacytometer (to obtain cell recovery). A 400 μL aliquot was transferred to a flow cytommetry tube. 10 μL of each Annexin V FITC (for apoptosis) and 7-AAD (for viability) dyes were added, the tube was vortexed and allowed to incubate in the dark for 15 minutes. The solution was diluted to 1 mL with 1× Annexin V Binding Buffer, vortexed and analyzed by flow cytommetry. […] With 2% DMSO, cell viability reached about 45%, and with 10% DMSO, cell viability reached around 78%.

`O=C(NCc1c(F)cccc1F)[C@H](O)[C@@H](O)[C@H](O)[C@H](O)CO` [(1b), N-(2,6-difluorobenzyl)-D-gluconamide] gave a BFU-E [1] of 28.5, a CFU-M [1] of 2.0 and a BFU-E ([2]; 11 mM IRI) of 25.3. The CFU-G ([2]; 11 mM IRI) was 4.3, the CFU-GEMM ([2]; 11 mM IRI) was 2.4 and the CFU-GM ([2]; 11 mM IRI) was 9.8. For the same molecule, the CFU-M ([2]; 11 mM IRI) was 1.5, the “Total Number of Colonies” value ([2]; 11 mM IRI) was 41.9 and the “Tot. No. Colonies” value ([2]; 11 mM IRI, UCB Unit 27) was 31 and 30. For the same molecule, the BFU-E ([2]; 18 mM IRI) was 24.0, the CFU-G ([2]; 18 mM IRI) was 9.5 and the CFU-GEMM ([2]; 18 mM IRI) was 7.5. The CFU-GM ([2]; 18 mM IRI) was 11.0, the CFU-M ([2]; 18 mM IRI) was 4.5 and the “Total Number of Colonies” value ([2]; 18 mM IRI) was 56.5. The “fold increase in functionality relative to the control” value ([2]; 18 mM vs DMSO only) was 1.8 fold, the CFU-G ([2]; 27.5 mM IRI) was 3.0 and the CFU-GEMM ([2]; 27.5 mM IRI) was 3.5. The CFU-GM ([2]; 27.5 mM IRI) was 11.0, the “Total Number of Colonies” value ([2]; 27.5 mM IRI) was 48.0 and the BFU-E ([2]; 55 mM IRI) was 29.5. It also gave a CFU-G ([2]; 55 mM IRI) of 8.5, a CFU-GEMM ([2]; 55 mM IRI) of 1.5 and a CFU-GM ([2]; 55 mM IRI) of 10.5. For the same molecule, the CFU-M ([2]; 55 mM IRI) was 0.5, the “Total Number of Colonies” value ([2]; 55 mM IRI) was 50.5 and the “combined results of the CFU assays vs control” value (from here on “combined results … vs control”) [2] was “performed particularly well”.

Work on `O=C(Nc1ccc(Cl)cc1)[C@H](O)[C@@H](O)[C@H](O)[C@H](O)CO` [(4a), N-(4-chlorophenyl)-D-gluconamide] yielded a BFU-E ([2]; 5 mM IRI) of 22.2, a CFU-G ([2]; 5 mM IRI) of 4.2 and a CFU-GEMM ([2]; 5 mM IRI) of 6.8. For the same molecule, the CFU-GM ([2]; 5 mM IRI) was 11.5, the CFU-M ([2]; 5 mM IRI) was 1.3 and the “Total Number of Colonies” value ([2]; 5 mM IRI) was 46.0. The “Tot. No. Colonies” value ([2]; 5 mM IRI, UCB Unit 27) was 47 and 38, the BFU-E ([2]; 8 mM IRI) was 17.0 and the CFU-G ([2]; 8 mM IRI) was 8.0. It also gave a CFU-GEMM ([2]; 8 mM IRI) of 4.0, a CFU-GM ([2]; 8 mM IRI) of 10.5 and a CFU-M ([2]; 8 mM IRI) of 0.5. The “Total Number of Colonies” value ([2]; 8 mM IRI) was 40.0, the BFU-E ([2]; 12.5 mM IRI) was 44.0 and the CFU-G ([2]; 12.5 mM IRI) was 1.5. The CFU-GEMM ([2]; 12.5 mM IRI) was 0.0, the CFU-GM ([2]; 12.5 mM IRI) was 8.5 and the CFU-M ([2]; 12.5 mM IRI) was 3.0. The “Total Number of Colonies” value ([2]; 12.5 mM IRI) was 61.0, the BFU-E ([2]; 25 mM IRI) was 37.0 and the CFU-G ([2]; 25 mM IRI) was 11.5. For the same molecule, the CFU-GEMM ([2]; 25 mM IRI) was 2.0, the CFU-GM ([2]; 25 mM IRI) was 10.5 and the CFU-M ([2]; 25 mM IRI) was 2.0. For the same molecule, the “Total Number of Colonies” value ([2]; 25 mM IRI) was 63.0, the “fold increase in functionality relative to the control” value ([2]; 25 mM vs DMSO only) was 2.0 fold and the “combined results … vs control” value [2] was “performed particularly well”.

With `COc1ccc(NC(=O)[C@H](O)[C@@H](O)[C@H](O)[C@H](O)CO)cc1` [(3a), N-(4-methoxyphenyl)-D-gluconamide] the BFU-E [1] was 35.0, the CFU-M [1] was 3.5 and the “Apoptosis (%)” value (Tf1-α cells; 0% DMSO) was 0%. For the same molecule, the “Cell Viability (%)” value (Tf1-α cells; 0% DMSO) was 0.16%, the “Apoptosis (%)” value (Tf1-α cells; 2% DMSO) was 1.38% and the “Cell Viability (%)” value (Tf1-α cells; 2% DMSO) was 74.33%. For the same molecule, the “Apoptosis (%)” value (Tf1-α cells; 10% DMSO) was 2.73%, the “Cell Viability (%)” value (Tf1-α cells; 10% DMSO) was 95.33% and the BFU-E ([2]; 11 mM IRI) was 20.5. It also gave a CFU-G ([2]; 11 mM IRI) of 5.5, a CFU-GEMM ([2]; 11 mM IRI) of 5.9 and a CFU-GM ([2]; 11 mM IRI) of 7.4. For the same molecule, the CFU-M ([2]; 11 mM IRI) was 0.9, the “Total Number of Colonies” value ([2]; 11 mM IRI) was 40.4 and the “Tot. No. Colonies” value ([2]; 11 mM IRI, UCB Unit 27) was 33 and 37. For the same molecule, the BFU-E ([2]; 18 mM IRI) was 18.0, the CFU-G ([2]; 18 mM IRI) was 8.8 and the CFU-GEMM ([2]; 18 mM IRI) was 2.8. For the same molecule, the CFU-GM ([2]; 18 mM IRI) was 11.3, the CFU-M ([2]; 18 mM IRI) was 0.3 and the “Total Number of Colonies” value ([2]; 18 mM IRI) was 36.0. The CFU-G ([2]; 27.5 mM IRI) was 6.5, the CFU-GEMM ([2]; 27.5 mM IRI) was 15.5 and the CFU-GM ([2]; 27.5 mM IRI) was 14.0. The “Total Number of Colonies” value ([2]; 27.5 mM IRI) was 74.5, the “fold increase in functionality relative to the control” value ([2]; 27.5 mM vs DMSO only) was 2.4 fold and the BFU-E ([2]; 55 mM IRI) was 24.5. It also gave a CFU-G ([2]; 55 mM IRI) of 9.5, a CFU-GEMM ([2]; 55 mM IRI) of 6.5 and a CFU-GM ([2]; 55 mM IRI) of 15.0. The CFU-M ([2]; 55 mM IRI) was 1.0, the “Total Number of Colonies” value ([2]; 55 mM IRI) was 56.5 and the “combined results … vs control” value [2] was “performed particularly well”.

In the case of `O=C(Nc1ccccc1F)[C@H](O)[C@@H](O)[C@H](O)[C@H](O)CO` [(2a), N-(2-fluorophenyl)-D-gluconamide], the “Apoptosis (%)” value (Tf1-α cells; 0% DMSO) is reported as 0%, the “Cell Viability (%)” value (Tf1-α cells; 0% DMSO) is reported as 1.27% and the “Apoptosis (%)” value (Tf1-α cells; 2% DMSO) is reported as 1.5%. For the same molecule, the “Cell Viability (%)” value (Tf1-α cells; 2% DMSO) was 81.28%, the “Apoptosis (%)” value (Tf1-α cells; 10% DMSO) was 3.37% and the “Cell Viability (%)” value (Tf1-α cells; 10% DMSO) was 92.83%. The “Tot. No. Colonies” value ([2]; 5 mM IRI, UCB Unit 26) was 48 and 66 and 42, the “Tot. No. Colonies” value ([2]; 5 mM IRI, UCB Unit 27) was 38 and 34 and the “combined results … vs control” value [2] was “performed particularly well”.
